Laboratory results published in US12173018B2, “Penicillin-binding protein inhibitors” (priority 2018, dated 2024).
≈ marks a conversion by molar mass, not a printed value. Read-outs that look alike come from different tables or passages of the source.

Columns and labels:
E. coli PBP1a = E. coli PBP1a (Escherichia coli (strain K12), UniProt P02918); experiment: Radioligand competition binding assay with 14C-labeled boronic acid probe, PBP1a
Summary of the method: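 Purified E. coli PBP1a (0.1 μM) preincubated 60 min with test boronic acid inhibitor in 20 mM Tris pH 7.5, 500 mM NaCl, 0.1% Triton X-100, then 60 min with 20 μM ^14C-labeled boronic acid probe. Bound probe recovered by spin desalting and counted by scintillation; EC50 reported.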

E. coli PBP1b = E. coli PBP1b (Escherichia coli (strain K12), UniProt P02919); experiment: Radioligand competition binding assay with 14C-labeled boronic acid probe, PBP1b
[1] = tested on: E. coli DH5α empty pLBII vector control strain; experiment: microbe, parasite or virus in culture; format: cell-based, Escherichia coli; conditions: Escherichia coli, read-out: Microbiological Activity (MIC in mg/L), E. coli DH5α/pLBII
Summary of the method: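 MIC was the lowest concentration visibly free of growth after 16–20 h at 37 °C, against 5×10^5 CFU/mL of the empty-pLBII DH5α control strain. Twofold compound dilutions were made in cation-adjusted Mueller-Hinton broth.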

P. aeruginosa ATCC 27853 = experiment: Broth microdilution MIC, P. aeruginosa ATCC 27853; format: cell-based; conditions: Pseudomonas aeruginosa
Method: To determine the ability of test compounds to potentiate the inhibition of the growth of bacterial strains, classic cell based broth microdilution minimum inhibitory concentration (MIC) assays were employed. MIC assays are performed according to CLSI methods except where otherwise noted (CLSI, 2011 and CLSI, 2009). The reference type strain E. coli ATCC 25922, the wild-type parent strain E. coli AG100, the hyper-permeable E. coli 901C and E. coli D22 and the E. coli AG100A strain lacking the acrAB efflux pump encoding genes were used to determine the ability of the PBP inhibitors to penetrate the outer membrane of gram-negative bacteria and inhibit bacterial growth. […] The P. aeruginosa PAO1, P. aeruginosa ATCC 27853 and A. baumannii ATCC 19606, along with the hyper-permeable P. aeruginosa ATCC 35151 and an engineered efflux pump-compromised strain of P. aeruginosa (ΔmexAB-oprM) were used to determine the ability of PBP inhibitors to penetrate the outer membrane of P. aeruginosa and A. baumannii and assess antibacterial activity against these important gram-negative organisms.
Briefly, cryo-preserved bacterial cultures of challenge strains are streaked for isolation on appropriate agar medium, in this case Mueller Hinton II agar. Following incubation to allow growth of the colonies, plates are sealed with parafilm and stored refrigerated for up to two weeks. For preparation of assay inoculum and to ensure low variability, at least 5 colonies are picked from the agar plates with an inoculating loop and aseptically transferred to a culture tube containing 3 mL of Mueller-Hinton Broth (supplemented with divalent cations to required levels based on Manufacturers' certification). The broth culture is grown for 3-5 hours at 37° C. with shaking at 200 rpm. Meanwhile, 2-fold serial dilutions of test compounds are conducted in a 96 well plate with a final volume of 75 μL per well at 2-fold the final desired concentration. After the dilution plates are set up the growing cultures are then diluted in a cuvette containing MH II broth and the optical density is measured at 600 nm. The Inoculum is diluted such that 75 μL of this culture in Mueller-Hinton Broth results in a starting bacterial concentration of 5×10^5 CFU/mL when added to the dilution plates. The plates are incubated for 16-20 hours at 37° C. The MIC values are read visually as the lowest concentration well with no bacterial growth.

[2] = ATCC27853, P. aeruginosa ATCC 27853, broth microdilution, read-out: MIC P. aeruginosa ATCC 27853

Sequence of E. coli PBP1a (P02918 whole entry): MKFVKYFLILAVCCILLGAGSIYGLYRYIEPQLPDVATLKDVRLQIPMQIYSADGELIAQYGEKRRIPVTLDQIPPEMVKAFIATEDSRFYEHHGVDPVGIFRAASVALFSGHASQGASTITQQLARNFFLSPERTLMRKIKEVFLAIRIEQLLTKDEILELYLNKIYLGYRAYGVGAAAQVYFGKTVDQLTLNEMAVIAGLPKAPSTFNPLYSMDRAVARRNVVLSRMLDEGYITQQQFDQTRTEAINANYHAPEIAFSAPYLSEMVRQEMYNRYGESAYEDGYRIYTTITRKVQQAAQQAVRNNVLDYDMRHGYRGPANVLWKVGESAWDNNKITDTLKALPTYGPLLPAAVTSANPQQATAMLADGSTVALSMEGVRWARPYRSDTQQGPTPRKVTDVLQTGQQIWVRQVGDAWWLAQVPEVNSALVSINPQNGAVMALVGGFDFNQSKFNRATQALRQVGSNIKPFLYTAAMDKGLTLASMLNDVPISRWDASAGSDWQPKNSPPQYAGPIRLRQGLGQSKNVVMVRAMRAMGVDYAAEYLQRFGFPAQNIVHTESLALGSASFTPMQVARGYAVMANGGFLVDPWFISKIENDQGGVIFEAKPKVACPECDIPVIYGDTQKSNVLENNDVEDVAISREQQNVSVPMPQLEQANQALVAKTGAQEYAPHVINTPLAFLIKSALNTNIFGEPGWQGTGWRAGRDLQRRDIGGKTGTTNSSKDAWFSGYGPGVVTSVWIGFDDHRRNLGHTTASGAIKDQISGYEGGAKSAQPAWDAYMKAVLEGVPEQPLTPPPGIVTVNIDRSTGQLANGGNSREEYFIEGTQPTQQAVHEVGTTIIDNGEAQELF
Sequence of E. coli PBP1b (P02919 whole entry): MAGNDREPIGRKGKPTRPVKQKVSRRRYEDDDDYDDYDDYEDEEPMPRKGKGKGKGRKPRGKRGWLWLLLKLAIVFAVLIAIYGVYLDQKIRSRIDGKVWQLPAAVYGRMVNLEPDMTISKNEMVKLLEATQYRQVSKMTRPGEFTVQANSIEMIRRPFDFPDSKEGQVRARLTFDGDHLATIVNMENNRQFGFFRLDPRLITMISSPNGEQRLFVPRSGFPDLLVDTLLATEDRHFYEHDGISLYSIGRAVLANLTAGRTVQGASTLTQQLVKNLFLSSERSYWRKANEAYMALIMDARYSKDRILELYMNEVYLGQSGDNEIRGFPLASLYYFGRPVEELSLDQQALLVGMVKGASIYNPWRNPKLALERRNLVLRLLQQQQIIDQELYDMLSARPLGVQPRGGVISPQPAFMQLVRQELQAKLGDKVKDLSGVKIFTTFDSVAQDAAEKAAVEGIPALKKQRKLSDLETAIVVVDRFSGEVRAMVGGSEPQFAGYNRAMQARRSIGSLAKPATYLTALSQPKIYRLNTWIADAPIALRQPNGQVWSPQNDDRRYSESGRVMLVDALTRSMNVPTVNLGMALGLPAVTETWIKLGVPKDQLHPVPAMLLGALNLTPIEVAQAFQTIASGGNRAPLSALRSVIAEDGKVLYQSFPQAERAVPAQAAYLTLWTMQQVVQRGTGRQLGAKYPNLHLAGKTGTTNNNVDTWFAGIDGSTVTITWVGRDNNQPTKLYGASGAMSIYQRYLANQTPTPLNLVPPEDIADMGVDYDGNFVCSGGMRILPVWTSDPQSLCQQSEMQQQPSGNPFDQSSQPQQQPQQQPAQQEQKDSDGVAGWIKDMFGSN

In the case of `CCN1CCN(C(=O)NC(C(=O)N[C@H]2Cc3cccc(C(=O)O)c3OB2O)c2csc(N)n2)C(=O)C1=O` (stereo partly drawn) [Example 5, (3R)-3-(2-(2-aminothiazol-4-yl)-2-(4-ethyl-2,3-dioxopiperazine-1-carboxamido)acetamido)-2-hydroxy-3,4-dihydro-2H-benzo[e][1,2]oxaborinine-8-carboxylic acid], the EC50 (E. coli PBP1a) is reported as < 10 µM and the EC50 (E. coli PBP1b) is reported as < 10 µM.
For `CCN1CCN(C(=O)NC(C(=O)N[C@H]2Cc3cccc(C(=O)O)c3OB2O)c2ccc(O)cc2)C(=O)C1=O` (stereo partly drawn) [Example 27, (3R)-3-(2-(4-ethyl-2,3-dioxopiperazine-1-carboxamido)-2-(4-hydroxyphenyl)acetamido)-2-hydroxy-3,4-dihydro-2H-benzo[e][1,2]oxaborinine-8-carboxylic acid], the EC50 (E. coli PBP1a) was < 10 µM and the MIC [1] was 8 to 16 mg/L (≈ 15.3 to 30.5 µM).
`O=C(O)c1cccc2c1OB(O)[C@@H](NC(=O)C(NC(=O)N1CCN(CCF)C(=O)C1=O)c1ccc(O)c(O)c1Cl)C2` (stereo partly drawn) [Example 71, (3R)-3-(2-(2-chloro-3,4-dihydroxyphenyl)-2-(4-(2-fluoroethyl)-2,3-dioxopiperazine-1-carboxamido)acetamido)-2-hydroxy-3,4-dihydro-2H-benzo[e][1,2]oxaborinine-8-carboxylic acid] was tested, and the EC50 (E. coli PBP1a) was < 10 µM and the EC50 (E. coli PBP1b) was < 10 µM.
In the case of `NS(=O)(=O)c1ccc(C(NC(=O)N2CCN(CCF)C(=O)C2=O)C(=O)N[C@H]2Cc3cccc(C(=O)O)c3OB2O)cc1` (stereo partly drawn) [Example 103, (3R)-3-(2-(4-(2-fluoroethyl)-2,3-dioxopiperazine-1-carboxamido)-2-(4-sulfamoylphenyl)acetamido)-2-hydroxy-3,4-dihydro-2H-benzo[e][1,2]oxaborinine-8-carboxylic acid], the EC50 (E. coli PBP1a) is reported as 10 to 100 µM.
Molecule `NCCCN1CCN(C(=O)NC(C(=O)N[C@H]2Cc3cccc(C(=O)O)c3OB2O)c2ccc(O)c(O)c2Cl)C(=O)C1=O` (stereo partly drawn) [Example 233, (3R)-3-(2-(4-(3-aminopropyl)-2,3-dioxopiperazine-1-carboxamido)-2-(2-chloro-3,4-dihydroxyphenyl)acetamido)-2-hydroxy-3,4-dihydro-2H-benzo[e][1,2]oxaborinine-8-carboxylic acid] has an MIC (P. aeruginosa ATCC 27853; [2]) of 2 to 4 µg/mL.
With `CCN1C[C@H](CO)N(C(=O)NC(C(=O)N[C@H]2Cc3cccc(C(=O)O)c3OB2O)c2ncc(O)cc2F)C(=O)C1=O` (stereo partly drawn) [Example 234, (3R)-3-(2-((R)-4-ethyl-6-(hydroxymethyl)-2,3-dioxopiperazine-1-carboxamido)-2-(3-fluoro-5-hydroxypyridin-2-yl)acetamido)-2-hydroxy-3,4-dihydro-2H-benzo[e][1,2]oxaborinine-8-carboxylic acid] the MIC (P. aeruginosa ATCC 27853; ATCC27853, read-out: MIC P. aeruginosa ATCC 27853) was > 128 µg/mL.
`CCNC(=O)NCCN1CCN(C(=O)NC(C(=O)N[C@H]2Cc3cccc(C(=O)O)c3OB2O)c2ccc(O)c(O)c2Cl)C(=O)C1=O` (stereo partly drawn) [Example 235, (3R)-3-(2-(2-chloro-3,4-dihydroxyphenyl)-2-(4-(2-(3-ethylureido)ethyl)-2,3-dioxopiperazine-1-carboxamido)acetamido)-2-hydroxy-3,4-dihydro-2H-benzo[e][1,2]oxaborinine-8-carboxylic acid] was tested, and the MIC (P. aeruginosa ATCC 27853; [2]) was 8 to 16 µg/mL.
`NCCCN1CCN(C(=O)N[C@@H](C(=O)N[C@H]2Cc3ccc(F)c(C(=O)O)c3OB2O)c2ccc(O)c(O)c2Cl)C(=O)C1=O` [Example 236, (R)-3-((R)-2-(4-(3-aminopropyl)-2,3-dioxopiperazine-1-carboxamido)-2-(2-chloro-3,4-dihydroxyphenyl)acetamido)-7-fluoro-2-hydroxy-3,4-dihydro-2H-benzo[e][1,2]oxaborinine-8-carboxylic acid] gave an MIC (P. aeruginosa ATCC 27853; [2]) of 0.5 to 1 µg/mL.
With `CCN1C[C@H](CO)N(C(=O)NC(C(=O)N[C@H]2Cc3ccc(F)c(C(=O)O)c3OB2O)c2ccc(O)c(O)c2Cl)C(=O)C1=O` (stereo partly drawn) [Example 237, (3R)-3-(2-(2-chloro-3,4-dihydroxyphenyl)-2-((R)-4-ethyl-6-(hydroxymethyl)-2,3-dioxopiperazine-1-carboxamido)acetamido)-7-fluoro-2-hydroxy-3,4-dihydro-2H-benzo[e][1,2]oxaborinine-8-carboxylic acid] the MIC (P. aeruginosa ATCC 27853; [2]) was 0.5 to 1 µg/mL.
Work on `CCN1C[C@H](CCN)N(C(=O)NC(C(=O)N[C@H]2Cc3ccc(F)c(C(=O)O)c3OB2O)c2ccc(O)c(O)c2Cl)C(=O)C1=O` (stereo partly drawn) [Example 238, (3R)-3-(2-((S)-6-(2-aminoethyl)-4-ethyl-2,3-dioxopiperazine-1-carboxamido)-2-(2-chloro-3,4-dihydroxyphenyl)acetamido)-7-fluoro-2-hydroxy-3,4-dihydro-2H-benzo[e][1,2]oxaborinine-8-carboxylic acid] yielded an MIC (P. aeruginosa ATCC 27853; [2]) of 2 to 4 µg/mL.
With `CNCCN1CCN(C(=O)NC(C(=O)N[C@H]2Cc3cccc(C(=O)O)c3OB2O)c2ccc(O)c(O)c2Cl)C(=O)C1=O` (stereo partly drawn) [Example 239, (3R)-3-(2-(2-chloro-3,4-dihydroxyphenyl)-2-(4-(2-(methylamino)ethyl)-2,3-dioxopiperazine-1-carboxamido)acetamido)-2-hydroxy-3,4-dihydro-2H-benzo[e][1,2]oxaborinine-8-carboxylic acid] the MIC (P. aeruginosa ATCC 27853; [2]) was 8 to 16 µg/mL.
